Laboratory results as given in patent US9738902B2, “Modified PYR/PYL receptors activated by ligands” (priority 2013, dated 2017).

Key:
[1] = system: PYR1 Y58H K59R V81I F108A F159L; assay: Y2H Combinatorial Mutagenesis II (HAB1, X-gal); assay type: cell-based, Arabidopsis
From the text: Both of the above optimization experiments led to the identification of the following mutations that, when introduced one at a time, enhance the mandipropamid sensitivity of PYR1^K59R,F108A,S122G: Y58H, V81C, V81I, V81T, V83L, L87A, F159L, F159M, F159V, A160V and V164I. Given that these each enhance sensitivity on their own, we tested if combinations of these mutations might generate more sensitive receptors. Mutagenic primers for each of the mutations were designed and used simultaneously with the QuickChange Lightning Multi Site-Directed Mutagenesis kit (Agilent, USA) with PYR1^K59R,F108A,S122G template DNA. Individual clones were sequenced to identify bona fide combination mutants, which were transformed into the Y190 pACT-HAB1 yeast strain and assayed for mandipropamid sensitivity. These efforts led to the identification of several improved receptors (“Combinatorial Mutagenesis Screen II”, Table 1), including PYR1^Y58H,K59R,V81I,F108A,S122G,F159L, a hextuple mutant that we have named PYR1^MANDI. Yeast reporter strains expressing this mutant are responsive to mandipropamid concentrations as low as 2 nM (Table 1). Thus, the 5-step mutagenesis protocol we followed led to the construction of a mandipropamid responsive receptor with nanomolar sensitivity.

[2] = system: wild type; assay: qRT-PCR of ABA-regulated genes RD29B and RAB18; assay type: in vivo, Arabidopsis; conditions: 2 μM mandipropamid, 8 hours
Protocol: (§1) One of ABA's major effects is to regulate gene expression. We therefore examined the effects of ABA and mandipropamid on gene expression in wild type, PYR-OX, MDP1 and MPD2 transgenic plants. Seed of the wild type or transgenic lines were surface sterilized, stratified for 4 days at 4° C. and then grown for 10 days at room temperature under continuous illumination in a liquid culture consisting of 0.5×MS salts and 0.5% sucrose and grown with continuous shaking to provide aeration. After 10 days, the culture solutions were adjusted to contain 50 μM ABA, 2 μM mandipropamid, or a mock treatment. After 8 hours exposure to the test compounds RNA was isolated using RNAEasy™ Plant RNA isolation kit (Qiagen, USA) and treated with DNAse. The purified RNA was utilized in qRT-PCR reactions using primers for the ABA-regulated genes RD29B or RAB18. Biological triplicate and triple technical replicate measurements were conducted. To perform qRT-PCR analyses, cDNA was generated from 5 μg of total RNA using superscript reverse transcriptase III (Invitrogen, USA), in reaction mixture containing a oligo-dT20 (SEQ ID NO:110) and a ribosomal RNA primer. Real-time quantitative PCR analysis was performed by ΔCt method of relative quantification. PCR mixtures contained cDNA, Maxima® SYBR green/Fluorescein qPCR master mix (Fermentas, USA) and 330 nM of each gene-specific primer. RT-PCRs were conducted using a BioRad CFX96 Real-Time PCR System and the data were processed using the BioRad CFX Manager software (BioRad, USA). PCRs were performed under the following cycling conditions: 3 min at 95° C., followed by 40 cycles of 10 sec at 95° C., 10 sec at 55° C. and 30 sec at 72° C. in 96-well optical reaction plates (BioRad, USA). The specificity of amplicons was verified by melting curve (disassociation) analysis (60-95° C.) after 40 cycles. Input cDNA was normalized using an internal control gene, PEX4 (AT5G25760).

[3] = system: MDP1 and MDP2 transgenic plants; assay: qRT-PCR of ABA-regulated genes RD29B and RAB18; assay type: in vivo, Arabidopsis; conditions: MDP1 and MDP2, 2 μM mandipropamid, 8 hours
Protocol: as §1

[4] = system: PYR1-OX; assay: qRT-PCR of ABA-regulated genes RD29B and RAB18; assay type: in vivo, Arabidopsis; conditions: 2 μM mandipropamid, 8 hours
Protocol: as §1

[5] = system: 35S::GFP-PYR1 expressing transgenic plants; assay: thermal imaging of leaf temperature; assay type: in vivo, Arabidopsis; conditions: 35S::GFP-PYR1, 2 μM, 24 hours
Protocol: (§2) To investigate if the system is sufficient to control ABA responses in vegetative tissues, we generated homozygous transgenic lines for two 35S-driven lines (E15 and E16) and 2 RBCS-driven lines (F29 and F34). These materials were grown along side wild type plants and a previously constructed 35S::GFP-PYR1 over expression line (Park et al., 2009). These plants were grown until three weeks old and then treated with a solution containing either 2 μM mandipropamid and 0.02% Silwet or a mock treatment containing 0.02% Silwet and the mandipropamid carrier solvent (DMSO). 24 hours after treatment, the leaf temperatures were examined using a thermal imaging camera. It is well known that ABA-induced guard cell closure reduces transpiration, which leads to increases in leaf temperatures. […] Since guard cell aperture is the primary determinant of transpiration rates, thermal imaging is a useful way to indirectly infer relative transpiration rates and guard cell aperture at the whole plant level. As is shown in FIG. 3, mandipropamid treatment of homozygous PYR1^MANDI expressing transgenic plants leads to large changes in leaf temperature (˜2° C. increase) within 24 hours of treatment.

[6] = system: wild type plants; assay: thermal imaging of leaf temperature; assay type: in vivo, Arabidopsis; conditions: 2 μM, 24 hours
Protocol: as §2

[7] = system: MDP1 and MDP2 genotypes (35S::PYR1^MANDI); assay: survival after water deprivation and re-watering; assay type: in vivo, Arabidopsis; conditions: 1 μM mandipropamid, 11 days water deprivation
Protocol: Examples 6 and 8 disclosed that mandipropamid treatments of PYR1^MANDI transgenic plants are sufficient to close guard cells (as indicated by thermal imaging) and confer drought tolerance. To investigate these responses further we performed three additional experiments using wild type Columbia, PYR1-OX and the MDP1 and MDP2 genotypes. Each experiment was conducted independently of the other at different times over the course of 8 months. Each experiment characterized 3 pots of each genotype (each pot contained 4 plants). After 2 weeks (exp. 1) or 3 weeks (Experiments 2 and 3) watering was ceased and the plants were treated with a mock or 1 μM mandipropamid solution made in water containing 0.02% Silwet L-77. These treatments were repeated every 4 (Experiment 1) or 3 days (Experiments 2 and 3). […] After 10 to 11 days of water deprivation the plants were re-watered to assess survival rates after extreme water deprivation. […] Inset in each image are the survival counts from Experiment 1 (upper numbers) and Experiments 2 and 3 (lower numbers). The survival rates have been separated because the experimental protocol for Experiment 1 differed from Experiments 2 and 3.
Plants were grown for ˜4 weeks until initial floral meristems became obvious, after which watering was ceased and the plants were treated with either a mock or 1 μM mandipropamid solution. […]

Compound: C#CCOc1ccc(CCNC(=O)C(OCC#C)c2ccc(Cl)cc2)cc1OC (stereo not shown) [Mandipropamid, mandipropamid]
- Threshold [1]: 0.01 µM
- transcription of RD29B and RAB18 [2]: does not do so
- transcription of RD29B and RAB18 [3]: high-level transcription
- transcription of RD29B and RAB18 [4]: does not do so
- leaf temperature effect of mandipropamid [5]: not observed
- leaf temperature effect of mandipropamid [6]: not observed
- survival rates after water deprivation and re-watering, relative to wild type and PYR1-OX controls [7]: greatly improved
